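Briefly, cells in 96-well plates were exposed to five compound concentrations for 48 h, and endpoints were estimated by linear interpolation. GI50 = concentration required for 50% inhibition of growth.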 Activity calls are given as the source filed them. Cut-off read from the data, not from the text of the source: active = GI50 up to about 1.1 µM and inactive = higher.
Assays:
Experiment in all cases: DTP human tumour cell line panel, 48 h
NCI-H226 = tested on: NCI-H226
OVCAR-3 = tested on: OVCAR-3
EKVX = tested on: EKVX
LOX IMVI = tested on: LOX IMVI
SN12C = tested on: SN12C
HCT-116 = tested on: HCT-116
BT-549 = tested on: BT-549
PC-3 = tested on: PC-3
Hs-578T = tested on: Hs-578T
A549 = tested on: A549
OVCAR-8 = tested on: OVCAR-8
MCF7 = tested on: MCF7
TK-10 = tested on: TK-10
M14 = tested on: M14
HOP-92 = tested on: HOP-92
786-0 = tested on: 786-0
CCRF-CEM = tested on: CCRF-CEM
U-251 = tested on: U-251
UACC-62 = tested on: UACC-62
NCI-H522 = tested on: NCI-H522
DU-145 = tested on: DU-145
SF-268 = tested on: SF-268
SNB-19 = tested on: SNB-19
HL-60 = tested on: HL-60
CAKI-1 = tested on: CAKI-1
MDA-MB-435 = tested on: MDA-MB-435
RXF 393 = tested on: RXF 393
COLO 205 = tested on: COLO 205
HOP-62 = tested on: HOP-62
NCI/ADR-RES = tested on: NCI/ADR-RES
MOLT-4 = tested on: MOLT-4
UACC-257 = tested on: UACC-257
T47D = tested on: T47D
OVCAR-5 = tested on: OVCAR-5
IGROV-1 = tested on: IGROV-1
HCC 2998 = tested on: HCC 2998
A498 = tested on: A498
MDA-MB-231 = tested on: MDA-MB-231
Malme-3M = tested on: Malme-3M
OVCAR-4 = tested on: OVCAR-4
NCI-H23 = tested on: NCI-H23
SF-295 = tested on: SF-295
NCI-H460 = tested on: NCI-H460
SW-620 = tested on: SW-620
MDA-N = tested on: MDA-N
RPMI-8226 = tested on: RPMI-8226
K562 = tested on: K562
ACHN = tested on: ACHN
SK-OV-3 = tested on: SK-OV-3
UO-31 = tested on: UO-31
SK-MEL-5 = tested on: SK-MEL-5
KM12 = tested on: KM12
SK-MEL-28 = tested on: SK-MEL-28
SK-MEL-2 = tested on: SK-MEL-2
HCT-15 = tested on: HCT-15
HT-29 = tested on: HT-29
SNB-75 = tested on: SNB-75
SF-539 = tested on: SF-539

COc1ccccc1/N=N/C(=N/NC(=O)c1ccc(C)cc1)c1ccc(N(CCC#N)CCC#N)cc1OC
GI50 (NCI-H226): 80 µM (inactive) | GI50 (OVCAR-3): 29 µM (inactive) | GI50 (EKVX): 26.4 µM (inactive) | GI50 (LOX IMVI): 33.4 µM (inactive) | GI50 (SN12C): 28.3 µM (inactive) | GI50 (HCT-116): 25.1 µM (inactive) | GI50 (BT-549): 32.3 µM (inactive) | GI50 (PC-3): 26.5 µM (inactive) | GI50 (Hs-578T): 56.4 µM (inactive) | GI50 (A549): 33.5 µM (inactive) | GI50 (OVCAR-8): 32.5 µM (inactive) | GI50 (MCF7): 13.4 µM (inactive) | GI50 (TK-10): 68.5 µM (inactive) | GI50 (M14): 29.4 µM (inactive) | GI50 (HOP-92): 27.4 µM (inactive) | GI50 (786-0): 31.7 µM (inactive) | GI50 (CCRF-CEM): 18.6 µM (inactive) | GI50 (U-251): 32.5 µM (inactive) | GI50 (UACC-62): 38.3 µM (inactive) | GI50 (NCI-H522): 33.7 µM (inactive) | GI50 (DU-145): 40.8 µM (inactive) | GI50 (SF-268): 30.5 µM (inactive) | GI50 (SNB-19): 30.8 µM (inactive) | GI50 (HL-60): 10.8 µM (inactive) | GI50 (CAKI-1): 52.7 µM (inactive) | GI50 (MDA-MB-435): 29.1 µM (inactive) | GI50 (RXF 393): 22.9 µM (inactive) | GI50 (COLO 205): 16 µM (inactive) | GI50 (HOP-62): 40.5 µM (inactive) | GI50 (NCI/ADR-RES): > 100 µM (inactive) | GI50 (MOLT-4): 19.1 µM (inactive) | GI50 (UACC-257): 38.3 µM (inactive) | GI50 (T47D): 18.7 µM (inactive) | GI50 (OVCAR-5): > 100 µM (inactive) | GI50 (IGROV-1): 37.6 µM (inactive) | GI50 (HCC 2998): 34.2 µM (inactive) | GI50 (A498): 22.2 µM (inactive) | GI50 (MDA-MB-231): 24.9 µM (inactive) | GI50 (Malme-3M): 38.1 µM (inactive) | GI50 (OVCAR-4): 31.9 µM (inactive) | GI50 (NCI-H23): 32.4 µM (inactive) | GI50 (SF-295): 41 µM (inactive) | GI50 (NCI-H460): 29.5 µM (inactive) | GI50 (SW-620): 38.1 µM (inactive) | GI50 (MDA-N): 23.2 µM (inactive) | GI50 (RPMI-8226): 14 µM (inactive) | GI50 (K562): 31.3 µM (inactive) | GI50 (ACHN): 19.6 µM (inactive) | GI50 (SK-OV-3): 37.1 µM (inactive) | GI50 (UO-31): 38.5 µM (inactive) | GI50 (SK-MEL-5): 37.8 µM (inactive) | GI50 (KM12): 26.8 µM (inactive) | GI50 (SK-MEL-28): 36 µM (inactive) | GI50 (SK-MEL-2): 19.8 µM (inactive) | GI50 (HCT-15): 42.3 µM | GI50 (HT-29): 33.1 µM (inactive)

CC(=O)OC1=c2ccccc2=C(O)C2C1C=NN2C(C)=O (centres undefined)
GI50 (NCI-H226): > 100 µM (inactive) | GI50 (OVCAR-3): > 100 µM (inactive) | GI50 (EKVX): 79.4 µM (inactive) | GI50 (LOX IMVI): > 100 µM (inactive) | GI50 (SN12C): > 100 µM (inactive) | GI50 (HCT-116): > 100 µM (inactive) | GI50 (BT-549): > 100 µM (inactive) | GI50 (PC-3): > 100 µM (inactive) | GI50 (Hs-578T): 88.5 µM (inactive) | GI50 (A549): > 100 µM (inactive) | GI50 (OVCAR-8): > 100 µM (inactive) | GI50 (MCF7): > 100 µM (inactive) | GI50 (TK-10): > 100 µM (inactive) | GI50 (M14): > 100 µM (inactive) | GI50 (HOP-92): > 100 µM (inactive) | GI50 (786-0): > 100 µM (inactive) | GI50 (CCRF-CEM): > 100 µM (inactive) | GI50 (U-251): > 100 µM (inactive) | GI50 (UACC-62): > 100 µM (inactive) | GI50 (NCI-H522): > 100 µM (inactive) | GI50 (DU-145): > 100 µM (inactive) | GI50 (SF-268): > 100 µM (inactive) | GI50 (SNB-19): > 100 µM (inactive) | GI50 (HL-60): > 100 µM (inactive) | GI50 (CAKI-1): > 100 µM (inactive) | GI50 (MDA-MB-435): > 100 µM (inactive) | GI50 (RXF 393): > 100 µM (inactive) | GI50 (COLO 205): 95.3 µM (inactive) | GI50 (HOP-62): > 100 µM (inactive) | GI50 (NCI/ADR-RES): > 100 µM (inactive) | GI50 (MOLT-4): > 100 µM (inactive) | GI50 (UACC-257): > 100 µM (inactive) | GI50 (SNB-75): 36.7 µM (inactive) | GI50 (T47D): > 100 µM (inactive) | GI50 (OVCAR-5): > 100 µM (inactive) | GI50 (IGROV-1): 99.3 µM (inactive) | GI50 (HCC 2998): > 100 µM (inactive) | GI50 (A498): > 100 µM (inactive) | GI50 (MDA-MB-231): > 100 µM (inactive) | GI50 (Malme-3M): 44.3 µM (inactive) | GI50 (OVCAR-4): > 100 µM (inactive) | GI50 (NCI-H23): > 100 µM (inactive) | GI50 (SF-295): > 100 µM (inactive) | GI50 (NCI-H460): > 100 µM (inactive) | GI50 (SW-620): > 100 µM (inactive) | GI50 (MDA-N): > 100 µM (inactive) | GI50 (RPMI-8226): > 100 µM (inactive) | GI50 (SF-539): > 100 µM (inactive) | GI50 (K562): 18.4 µM (inactive) | GI50 (ACHN): > 100 µM (inactive) | GI50 (SK-OV-3): > 100 µM (inactive) | GI50 (UO-31): > 100 µM (inactive) | GI50 (SK-MEL-5): > 100 µM (inactive) | GI50 (KM12): > 100 µM (inactive) | GI50 (SK-MEL-28): > 100 µM (inactive) | GI50 (SK-MEL-2): > 100 µM (inactive) | GI50 (HCT-15): > 100 µM | GI50 (HT-29): > 100 µM (inactive)
